According to patent US10940139B2, “Compounds that interact with the Ras superfamily for the treatment of cancers, inflammatory diseases, rasopathies, and fibrotic disease” (Shy Therapeutics LLC, priority 2017, dated 2021):
Where two headings read alike, the source gives them in different places.

Target: KRas G12D/Q61H double mutant (Homo sapiens (Human), UniProt P01116, G12D/Q61H)
Assay: Ras GTP binding domain inhibition assay (labeled GTP)
Details: 20 μM compound
Experimental: Buffer-I: • 50 mM Tris, pH 7.5 • 150 mM NaCl (optional) • 1 mM MgCl2 • 1 mM DTT. • KRas G12D mutant protein was expressed as a His-tagged protein. Purified His-KRas G12D protein was diluted in buffer-I to a final concentration of 3-10 μg/ml. • 200 μl of the diluted His-KRas G12D protein was added to a nickel coated 96 well plate and incubated overnight at 4° C. • The next day, wells were washed 3× in 200 μl of Buffer-I. • Then 200 μl of Buffer-I were added to each well in the presence of 1% DMSO. • Tested compounds were added to the protein-coated wells at a concentration of 20 μM, and incubated for 3 hours at room temperature. While performing IC50 measurements a serial dilution of all tested concentrations was prepared.
Then 22 μl of Cy3-GTP or Cy5-GTP was added to each well. The labeled GTP was incubated for 45 min. at room temperature. • Following GTP incubation, wells were washed 3× in Buffer-I, and 200 μl of Buffer-I were added to each well. • Following washes, the amount of bound labeled-GTP was measured with an Eppendorf AF2200 plate reader.
By substituting KRas G12D mutant protein with KRas G12C mutant, KRas wild type, KRas Q61H mutant, KRas G12D/Q61H double mutant or KRas G12C/Q61H double mutant under the assay conditions described above, KRas G12C mutant KRas wild type, KRas Q61H mutant, KRas G12D/Q61H double mutant and KRas G12C/Q61H double mutant inhibition, respectively, were each determined.

[1] = read-out: % Inhibition at 20 μM KRas G12D Q61H
[2] = KRas G12D/Q61H double mutant, read-out: % Inhibition at 20 μM of K-Ras mutant and wild-type protein, KRas G12D Q61H

KRas G12D/Q61H double mutant, sequence (P01116-2 other isoform, or with tags, fused parts or gaps G12D/Q61H): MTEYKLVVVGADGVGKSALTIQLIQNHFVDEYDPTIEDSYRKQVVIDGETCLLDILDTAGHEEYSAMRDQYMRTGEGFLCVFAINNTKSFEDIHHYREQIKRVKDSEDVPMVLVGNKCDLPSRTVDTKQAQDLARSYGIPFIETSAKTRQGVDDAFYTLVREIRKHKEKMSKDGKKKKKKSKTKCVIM

Row | SMILES | inhibition at 20 µM [1] [%] | inhibition at 20 µM [2] [%]
1 | O=C(Nc1cccc(C(=O)Nc2nnc(-c3ccccn3)[nH]2)c1)c1cccnc1 | 25 to 50 | –
2 | CCc1c(C)sc2[nH]c(-c3ccccn3)nc(=O)c12 | 25 to 50 | –
3 | O=C(Nc1nc(-c2ccccn2)cs1)c1ccc(=O)n(Cc2ccccc2)n1 | 25 to 50 | –
4 | CC(C)c1ccc2nc(-c3ccccn3)[nH]c(=O)c2c1 | 25 to 50 | –
5 | Cc1ccccc1CC(=O)Nc1nnc(-c2ccccn2)[nH]1 | 25 to 50 | –
6 | COc1c(C)cnc(CN2CCCCC2c2ncc[nH]2)c1C (stereo not drawn) | 25 to 50 | –
7 | CC(c1ccc(Cl)cc1Cl)N(C)Cc1nnc(-c2ccccc2)o1 (stereo not drawn) | 25 to 50 | –
8 | O=c1nc(-c2ccccn2)[nH]c2c1cnn2-c1cccc(C(F)(F)F)c1 | 25 to 50 | –
9 | OC1CCC(Nc2nc(-c3ccccn3)nc3c2CCC3)CC1 (stereo not drawn) | 25 to 50 | –
10 | Nc1nc(-c2ccccn2)nn1C(=O)Cc1csc(-c2ccccc2)n1 | 25 to 50 | –
11 | O=C(Cc1ccc(Cl)cc1)Nc1nnc(-c2ccccn2)[nH]1 | 25 to 50 | –
12 | O=C(Nc1nnc(-c2ccccn2)[nH]1)C1CCCN(C(=O)c2ccoc2)C1 (stereo not drawn) | 25 to 50 | –
13 | Cc1cc(C(C)C)ccc1OCC(=O)N1N=CCC1(O)C(F)(F)F (stereo not drawn) | 25 to 50 | –
14 | O=C(Nc1nnc(-c2ccccn2)[nH]1)c1ccncc1 | 25 to 50 | –
15 | O=C(CCNS(=O)(=O)c1ccc2c(c1)CCCC2)Nc1nnc(-c2ccccn2)[nH]1 | 25 to 50 | –
16 | O=C(Nc1nnc(-c2ccccn2)[nH]1)c1cc(Cl)sc1Cl | 25 to 50 | –
17 | O=C(CSCc1ccccn1)Nc1nnc(-c2ccccn2)[nH]1 | 25 to 50 | –
18 | CC(Nc1nc(-c2ccccn2)nc2c1CCC2)c1ccncc1 (stereo not drawn) | 25 to 50 | –
19 | O=C(CCc1ccc(F)cc1)Nc1nnc(-c2ccccn2)[nH]1 | 25 to 50 | –
20 | CCC(C)c1ccc(S(=O)(=O)N(C)C(c2ccccc2)c2ccccn2)cc1 (stereo not drawn) | 25 to 50 | –
21 | CC(C1CC1)N(CC(F)(F)F)C(=O)Cc1ccc(Cl)cc1Cl (stereo not drawn) | 25 to 50 | –
22 | CCc1cc2c(=O)[nH]c(-c3ccccn3)nc2s1 | 25 to 50 | –
23 | Nc1nc(-c2ccccn2)nn1C(=O)CN1CCS(=O)(=O)CC1 | 25 to 50 | –
24 | CC(C)Cc1noc(CN(C)CC23CC4CC(CC(C4)C2)C3)n1 | 25 to 50 | –

Row | SMILES | inhibition at 20 µM [1] [%] | inhibition at 20 µM [2] [%]
25 | OC(CNc1nc(-c2ccccn2)nc2c1CCC2)COCC1CC1 (stereo not drawn) | 25 to 50 | –
26 | COc1ccc(Br)cc1CN(C)C(C)c1nnc(-c2ccc(C)cc2)o1 (stereo not drawn) | 25 to 50 | –
27 | O=C(c1ccc(COc2ccccc2)o1)N1CCCc2ccc(F)cc21 | 25 to 50 | –
28 | Cc1noc(C)c1CNc1ccccc1Cc1ccccc1 | 25 to 50 | –
29 | Cc1c(-c2ccccc2)sc2[nH]c(-c3ccccn3)nc(=O)c12 | 25 to 50 | –
30 | CN(C)S(=O)(=O)c1ccc(CN2CCCc3cc(OC(F)(F)F)ccc32)o1 | 25 to 50 | –
31 | O=C(CCNc1ncccn1)Nc1nnc(-c2ccccn2)[nH]1 | 25 to 50 | –
32 | Cc1ccc(OCCn2c(CN3CCCCC3)nc3ccccc32)cc1 | 25 to 50 | –
33 | O=C(CCc1ccccn1)Nc1nnc(-c2ccccn2)[nH]1 | 25 to 50 | –
34 | CSc1nnc(CN(Cc2ccccc2)Cc2ccccc2)s1 | 25 to 50 | –
35 | CC(C)Cc1noc(CNc2cc(C(F)(F)F)ccc2N2CCCC2)n1 | 25 to 50 | –
36 | O=C(CCc1nc2ccccc2s1)Nc1nnc(-c2ccccn2)[nH]1 | 25 to 50 | –
37 | CN1CCC(C(=O)Nc2nnc(-c3ccccn3)[nH]2)CC1=O (stereo not drawn) | 25 to 50 | –
38 | O=C(Nc1nc(-c2ccccn2)cs1)c1ccc(=O)[nH]c1 | 25 to 50 | –
39 | O=C(Nc1nnc(-c2ccccn2)[nH]1)C1CC=CCC1 (stereo not drawn) | 25 to 50 | –
40 | COCCN(CCOC)c1nc(-c2ccccn2)nc2c1CCC2 | 25 to 50 | –
41 | CN(Cc1ccc(C(=O)NCC(F)(F)F)cc1)Cc1ccc(F)cc1Cl | 25 to 50 | –
42 | CCN(CC(=O)Nc1ccc(OC)cc1)Cc1coc(-c2ccc(C)cc2C)n1 | 25 to 50 | –
43 | COC(=O)CCN(Cc1ccc(F)c(F)c1)c1nc(C(F)(F)F)ccc1C#N | 25 to 50 | –
44 | O=C(Nc1nnc(-c2ccccn2)[nH]1)c1ccc(Oc2ccccc2)cc1 | 25 to 50 | –
45 | O=c1nc(-c2ccccn2)[nH]c2scc(-c3ccco3)c12 | 25 to 50 | –
46 | Cc1ccccc1OCCN(C)c1ccc([N+](=O)[O-])c(OC(F)F)c1 | – | 25 to 50
47 | COc1ccc2c(c1)C(N(Cc1ccccc1)Cc1nc(CC(C)C)no1)CCO2 (stereo not drawn) | – | 25 to 50
48 | CCC(C)Sc1ccc(NC(=O)c2ccccc2OCCOC)c(C(F)(F)F)c1 (stereo not drawn) | – | 25 to 50

Row | SMILES | inhibition at 20 µM [1] [%] | inhibition at 20 µM [2] [%]
49 | CCCCOCCN(C(=O)c1ccn(-c2ccccc2)n1)c1ccccc1Br | – | 25 to 50
50 | COc1ccc(CN(C)Cc2ccc(OC)c(SC(F)(F)F)c2)cc1F | – | 25 to 50
51 | OCCCCCSc1n[nH]c(-c2ccccn2)n1 | – | 51 to 75
52 | c1ccc(Cc2nc(CN(CCn3cccn3)Cc3csc(Cc4ccccc4)n3)cs2)cc1 | – | 1 to 25
53 | CCN(CCNC(=O)c1oc(-c2ccccc2)nc1C)c1ccccc1C | – | 51 to 75
54 | CC(O)(c1ccc(OCc2csc(Cc3ccccc3)n2)cc1)C(F)(F)F (stereo not drawn) | – | 25 to 50
55 | Cc1ccccc1N(CC(=O)NCC1CCCCCC1)S(C)(=O)=O | – | 1 to 25
56 | CC(=O)c1cc(C(=O)Nc2cccc(COC3CCCCC3)c2)n(C)c1 | – | 25 to 50
57 | O=C(Cc1ccccc1[N+](=O)[O-])N1CCCC1C1CCCC1 (stereo not drawn) | – | 1 to 25
58 | CC(C)=CC1C(C(=O)NCc2ccc(OCC(F)(F)F)nc2)C1(C)C (stereo not drawn) | – | 25 to 50
59 | Cc1ccc(S(=O)(=O)N2CCN(C(=O)CNC(=O)c3ncccc3O)CC2)s1 | – | 25 to 50
60 | COC(=O)c1cc(Cn2nc(C(=O)OC)c(Br)c2C2CC2)c(C)s1 | – | 25 to 50
61 | CC1CCC(NS(=O)(=O)CC(=O)N2CCCC2Cc2ccccc2Cl)CC1 (stereo not drawn) | – | 25 to 50
62 | CN(Cc1ccccc1C(F)(F)F)S(=O)(=O)CCc1ccccc1[N+](=O)[O-] | – | 25 to 50
63 | COc1ccc(CCN2CCN(c3ccc(C#N)c(C(F)(F)F)c3)CC2)cc1 | – | 25 to 50
64 | CCN(C(=O)c1cccc(-n2cccn2)c1)c1ccc(C#N)c(Cl)c1 | – | 1 to 25
65 | COc1ccc(Cl)cc1CN(c1ccccc1F)S(=O)(=O)C(C)C | – | 25 to 50
66 | FC(F)Oc1ccc(N2CCOC(c3ccc(Br)cc3)C2)nc1 (stereo not drawn) | – | 25 to 50
67 | CCCn1c(CNc2cccc(Cl)c2OCCOCC)nc2cc(S(=O)(=O)N(C)C)ccc21 | – | 25 to 50
68 | COc1ccc(C)cc1-n1ccc(C(=O)N2CCCC2C(O)C(F)(F)F)n1 (stereo not drawn) | – | 1 to 25
69 | Cc1ccc(OCc2ccc(C(=O)N(CCC#N)CC3CCC3)o2)c(C)c1 | – | 51 to 75
70 | CCOc1ccc(C2=NN(C(=O)CC)C(c3ccc(CC)cc3)C2)cc1 (stereo not drawn) | – | 25 to 50
71 | CC(C)CC(NC(=O)OC(C)(C)C)c1noc(Cc2c[nH]c3ccccc23)n1 (stereo not drawn) | – | 1 to 25
72 | COC(=O)C1CCN(S(=O)(=O)NCCOc2ccc(C(C)(C)C)cc2)CC1 | – | 25 to 50

Row | SMILES | inhibition at 20 µM [1] [%] | inhibition at 20 µM [2] [%]
73 | NCC(=O)NCc1ccc(Oc2ccc(F)c(F)c2)cc1C(F)(F)F | – | 1 to 25
74 | OCC1(Cc2ccccc2)CCCN1c1nc(-c2ccccn2)nc2c1CCC2 (stereo not drawn) | – | 25 to 50
75 | Cc1ccc(C(=O)Oc2cccc(C3CN(C(=O)c4ccc(C)s4)CCO3)c2)s1 (stereo not drawn) | – | 1 to 25
76 | COC(=O)c1ccc(CN2CC(NC(=O)OC(C)(C)C)CCC2C(F)(F)F)cc1 (stereo not drawn) | – | 25 to 50
77 | O=[N+]([O-])c1cc(C(F)(F)F)ccc1NCc1ccc2c(c1)OCCCO2 | – | 25 to 50
78 | CCOc1ccc(CSc2nnc(-c3ccco3)n2-c2ccccc2)cc1OCC | – | 25 to 50
79 | COc1ccc(-c2cc(NC(=O)C3CC(=O)N(C(C)c4ccccc4)C3)ccc2OC)cc1 (stereo not drawn) | – | 1 to 25
80 | O=C(CSCc1cccc(F)c1)Nc1ccc(-c2ccccc2)cc1 | – | 25 to 50
81 | CCC(C)(C)c1ccc(Oc2ccc(NC(=O)NS(=O)(=O)c3ccc(C)cc3)cc2)cc1 | – | 51 to 75
82 | CCN(CC)S(=O)(=O)c1cccc(C(=O)N2N=C(c3ccccc3)CC2(O)C(F)(F)F)c1 (stereo not drawn) | – | 25 to 50
83 | CC(C)c1ccc(CSc2nnc(SCCNC(=O)C3CCCC3)s2)cc1 | – | 51 to 75
84 | CCc1noc(CN(CCN(Cc2nc(CC)no2)c2ccccc2)c2ccccc2)n1 | – | 51 to 75
85 | Cc1occc1C(=O)OCC(COC(=O)c1ccoc1C)NC(=O)OC(C)(C)C | – | 25 to 50
86 | CCN(c1ncc(C(=O)OC)s1)S(=O)(=O)c1ccc(C)c(C)c1 | – | 51 to 75
87 | CCNC(=O)COc1ccc(CN2CCN(C3CC3)c3ccc(F)cc32)cc1 | – | 1 to 25
88 | O=S(=O)(Cc1ccc(OC(F)(F)F)cc1)Nc1cccnc1-n1cccn1 | – | 25 to 50
89 | COC(=O)c1cc(NCc2cnc(C(C)(C)C)s2)ccc1Br | – | 25 to 50
90 | CC(C)(CN1CCN(c2cccc(Cl)c2)CC1)NS(=O)(=O)c1ccccc1 | – | 25 to 50
91 | CCOC(=O)c1c(NC(C)=O)sc(Cc2ccc3c(c2)OCO3)c1C | – | 25 to 50
92 | COC(=O)c1ccoc1COc1ccc(C(=O)c2ccc(F)cc2)cc1 | – | 51 to 75
93 | O=C(Oc1ccc(Oc2ccccc2)cc1)c1ccccc1-c1ccc(C(F)(F)F)cc1 | – | 25 to 50
